The source of these data is patent US20090030068A1, “Antitumour Compounds” (PHARMA MAR, S.A., priority 2005, published 2009).

The test system of one data set is MDA-MB-231. The data set can be described thus: SRB colorimetric cell growth inhibition assay, MDA-MB-231. The data set is classed as cell-based. How it is done:
(§1) The assays of antitumor activity allow detecting extracts or compounds with cytotoxic activity (cell death) or cytostatic activity (growth inhibition) in in vitro cultures of tumor cells of human origin.
(§2) The quantification of cell growth in vitro was carried out by means of a calorimetric assay with sulforhodamine B (SRB) (following an adaptation of the previously described method by Philip Skehan et al. 1990, J. Natl. Cancer Inst., 82:1107-1112).
(§3) This type of assay uses 96-well culture microplates, (Mosmann, 1983, Faircloth, 1988). Most of the cell lines used are obtained from the American Type Culture Collection (ATCC) and derived from different types of human tumors.
(§4) The cell cultures are maintained in DMEM culture medium (supplemented with 10% fetal bovine serum (FBS), 1% penicillin/streptomycin 1% glutamine) at 37° C., 5% CO2 and 98% humidity.
(§5) For the assays, the cells are trypsinized and seeded in 96-well microplates at different concentrations depending on the cell line, and are incubated for 24 hours in an active ingredient-free medium for their stabilization. The cultures are then treated (final concentration varies depending on the type of assay) with carrier (DMSO:DMEM, 1:1) or active ingredient. After 48 hours of exposure to the active ingredient, the antitumor effect is measured by means of the previously mentioned SRB method, which basically consists of: fixing the cells with a 1% glutaraldehyde solution (30 min, RT), washing of the fixer in PBS (3 washings, RT), staining the cultures with a 0.4% SRB solution (30 min, RT), washing of the colorant in 1% acetic acid solution (3 washings, RT), air-drying the plates and final extraction of the colorant with Tris buffer. The quantification of the assay is carried out by means of optical density reading of the plates in a spectrophotometric microplate reader at a single wavelength of 490 nm. […]

In the next data set the test system is HT29. The data set can be described thus: SRB colorimetric cell growth inhibition assay, HT29. Format: cell-based. The method, then:
as §1, §2, §3, §4, §5

The subject of the next data set is A549. The data set can be described thus: SRB colorimetric cell growth inhibition assay, A549. Format: cell-based. The method, then: as §1, §2, §3, §4, §5
A further data set concerns P388 leukemia. The note with it: cited from earlier work; for antitumor activity / toxicity: P388 leukemia in CDF1 mice.
For the next data set, the system named is KB cells. As to conditions: cited from earlier work.
A further data set deals with L1210 cells. The note with it: cited from earlier work.
The subject of another data set is HCT-8 cancer cells. The note with it: cited from earlier work.
Another data set relates to A549 cancer cells. The note with it: cited from earlier work.
The test system of a further data set is P388 cancer cells. As to conditions: cited from earlier work.
A further data set relates to MDA-MB-231 cancer cells. The note with it: cited from earlier work.

≈ marks a conversion by molar mass, not a printed value.

With `COC1CC(C)OC(CCC(C)C(O)C(C)C2OC(=O)/C=C/C(C)=C/CC(O)CC3C=CCC(CC(OC)C(C)C(O)CC(O)C(C)C(C(C)C(O)C(C)CCC4CC(OC)CC(C)O4)OC(=O)/C(C)=C/CC(O)CC4C=CCC(CC(OC)C(C)C(O)CC(O)C2C)O4)O3)C1` (stereo not shown) [Compound A], the TGI with MDA-MB-231 (Breast MDA-MB-231, 48 hours of exposure, concentration causing total growth inhibition) turned out to be 2.35E−6 Molar; with HT29 (Colon HT29, 48 hours of exposure, concentration causing total growth inhibition), 8.81E−7 Molar; in the data set with A549 (NSCL (Lung) A549, 48 hours of exposure, concentration causing total growth inhibition) it was 3.38E−7 Molar. In addition, the CC50 with MDA-MB-231 (Homo sapiens, MDA-MB-231, 48 h, read-out: LC50) worked out at 4.77 µM; in the data set with A549 (Homo sapiens, A549, 48 h, read-out: LC50) it was 0.529 µM. For the same molecule, the GI50 (usually the concentration at which growth is held to half of that of the control) in the data set on MDA-MB-231 (Homo sapiens, Breast MDA-MB-231, 48 hours of exposure, concentration causing 50% growth inhibition) was 0.808 µM; with HT29 (Homo sapiens, HT-29, Colon HT29, 48 hours of exposure, concentration causing 50% growth inhibition), 0.338 µM; in the data set on A549 (Homo sapiens, NSCL (Lung) A549, 48 hours of exposure, concentration causing 50% growth inhibition) it was 0.228 µM. In addition, the LC50 (concentration killing 50% of cells) with HT29 (Homo sapiens, HT-29, 48 h, read-out: LC50) turned out to be 2.2 µM.
For the molecule isoswinholide A, the antitumor activity entry in the data set with P388 leukemia is “did not show promising antitumor activity”. Also, the toxicity entry with P388 leukemia was “toxic”. Also, the results for the “IC50 (cytotoxicity)” value with KB cells and in the data set on L1210 cells were 1.1 µg/mL and 1.35 µg/mL, respectively.
For the molecule `COC1CC(C)OC(CCC(C)C(O)C(C)C2OC(=O)/C=C\C(C)=C\CC(O)CC3C=CCC(CC(OC)C(C)C(O)CC(O)C(C)C(C(C)C(O)C(C)CCC4CC(O)CC(C)O4)OC(=O)/C=C\C(C)=C\CC(O)CC4C=CCC(CC(OC)C(C)C(O)CC(O)C2C)O4)O3)C1` (stereo not shown) [Swinholide C], the entries for the “IC50 (cytotoxicity)” value in the data set on KB cells and with L1210 cells were 0.05 µg/mL (≈ 0.0363 µM) and 0.14 µg/mL (≈ 0.102 µM), respectively.
For the molecule `CO[C@H]1C[C@H](CC[C@H](C)[C@H](O)[C@H](C)[C@H]2OC(=O)/C(C)=C/C[C@H](O)C[C@@H]3C=CC[C@@H](C[C@H](OC)[C@@H](C)[C@@H](O)C[C@@H](O)[C@H](C)[C@@H]([C@@H](C)[C@@H](O)[C@@H](C)CC[C@H]4C[C@H](OC)C[C@H](C)O4)OC(=O)/C(C)=C/C[C@H](O)C[C@@H]4C=CC[C@@H](C[C@H](OC)[C@@H](C)[C@@H](O)C[C@@H](O)[C@@H]2C)O4)O3)O[C@@H](C)C1` [Misakinolide A], in the data set with P388 leukemia (dose of 0.1 mg/kg (mouse), P388 leukemia), the T/C (as a rule, the result in the treated group divided by that in the control group, in per cent) was 140%. In addition, the “in vitro antitumor activity” value in the data set on HCT-8 cancer cells, in the data set with A549 cancer cells, in the data set with P388 cancer cells and in the data set on MDA-MB-231 cancer cells was “in vitro antitumor activity” each time. In the data set with L1210 cells, the “IC50 (cytotoxicity)” value was 0.035 µg/mL (≈ 0.0262 µM).
For `CO[C@H]1C[C@H](CC[C@H](C)[C@H](O)[C@H](C)[C@H]2OC(=O)/C=C/C(C)=C/C[C@H](O)C[C@@H]3C=CC[C@@H](C[C@H](OC)[C@@H](C)[C@@H](O)C[C@@H](O)[C@H](C)[C@@H]([C@@H](C)[C@@H](O)[C@@H](C)CC[C@H]4C[C@H](OC)C[C@H](C)O4)OC(=O)/C=C/C(C)=C/C[C@H](O)C[C@@H]4C=CC[C@@H](C[C@H](OC)[C@@H](C)[C@@H](O)C[C@@H](O)[C@@H]2C)O4)O3)O[C@@H](C)C1` [Swinholide A], in the data set on P388 leukemia, the antitumor activity result is “did not show promising antitumor activity” and the toxicity result is reported as “toxic”. For the same molecule, in the data set on KB cells, the “IC50 (cytotoxicity)” value is 0.04 µg/mL (≈ 0.0288 µM). Also, the “IC50 (cytotoxicity)” value in the data set on L1210 cells was 0.03 µg/mL (≈ 0.0216 µM).
